Patent US9980976B2, “Use of REDD1 inhibitors to dissociate therapeutic and adverse atrophogenic effects of glucocorticoid receptor agonists” (Northwestern University, priority 2015, dated 2018)

Experiments:
[1] = tested on: CD34+ follicular SCs and p63-positive progenitors; test: CD34+ follicular epithelial stem cells and p63+ progenitors in mouse skin (immunostaining); format: in vivo; conditions: chronic FA treatment
Source text: Sections of formalin-fixed, paraffin-embedded skin and ORCs were stained with hematoxylin and eosin (H&E), Masson's trichrome to evaluate the effect on dermis and collagen fibers (Sheehan & Hrapchack, 1980), and with antibodies against BrdU (BD Biosciences, San Jose, Calif., USA), keratins 1, 5, and 10, loricrin (Covance, Princeton, N.J.), phospho-mTORSer2448 (Cell Signaling Technology, Inc., Danvers, Mass., USA), REDD1 (Proteintech Group, Inc, Chicago, Ill.), p63 (eBioscience, San Diego, Calif., USA), and CD34 (Abcam, Cambridge, Mass., USA).
The numbers of BrdU+, p63+, and total number of basal keratinocytes were evaluated in 10 fields of view in each skin/ORC sample under the microscope. Number of BrdU+ and p63+ cells is presented as percent of total number of basal keratinocytes. The number of CD34+ hair follicles among 10 randomly selected hair follicles per skin sample was evaluated under the microscope.

[2] = tested on: NF-kB dependent genes cyclins D1 and D2, MMP1 and CD74; test: Q-PCR analysis of NF-kB dependent genes in HaCaT and CEM cells; format: cell-based, human; conditions: single treatments, 1 uM
Procedure: FIG. 14. Rapamycin enhances GR transrepression. A, B. Q-PCR analysis of MMP13 and CD74 expression in HaCaT cells (A) and cyclin D1 (CCND1) and cyclin D2 (CCND2) expression in CEM cells (B). Cells were pretreated with solvent or Rapa (1 uM)×6 hrs and treated with solvent (Control) or FA (1 uM) for 24 h. A, B. Q-PCR results were normalized to the expression of the housekeeping Rp127 gene, and presented as fold of change compared to control cells. The means+/−SD calculated for three individual RNA samples/condition. a—Statistically significant difference (P<0.05) compared to control; b—Statistically significant differences (P<0.05) compared to FA treatment. C. […] The means+SD were calculated for three individual wells/group in one representative experiment (out of three experiments). a—Statistically significant differences (P<0.05) in comparison to vehicle treatment; b—Statistically significant differences (P<0.05) in comparison to FA treatment.
Total RNA from murine epidermis, whole human skin, and cell cultures was isolated with RiboPure kit (Ambion, Life Technologies, Grand Island, N.Y., USA). […] The gene expression was assessed using semi-quantitative two-step RT-PCR and quantitative Q-PCR. […] For semi-quantitative PCRs, Taq DNA polymerase (Promega) was used, and PCR products were separated on 1.5% agarose gel and visualized using automated imaging system (Bio-Rad, Hercules, Calif., USA). […]

For `CC1(C)O[C@@H]2C[C@H]3[C@@H]4C[C@H](F)C5=CC(=O)C=C[C@]5(C)[C@@]4(F)[C@@H](O)C[C@]3(C)[C@]2(C(=O)CO)O1` [FA, fluocinolone acetonide], the “decrease in number of p63+ basal keratinocytes” value ([1]; REDD1 KO mice) was 20%, the “hair follicles CD34 positive” value ([1]; REDD1 KO mice) was 40% and the “decrease in number of p63-positive progenitors in the basal layer of epidermis” value ([1]; wild-type mice) was roughly 40%. For the same compound, the “hair follicles CD34 positive” value ([1]; wild-type mice) was 5% and the “basal expression of NF-kB dependent genes cyclins D1 and D2, MMP1 and CD74” value [2] was “inhibited”.
